Test results as given in the NIST ThermoML archive (doi:10.1016/j.jct.2016.12.023).

Assay: mn = molality of the nth substance listed, in mol/kg
Details: 298.15 K, 101.33 kPa, Liquid, Vibrating tube method

OC[C@H]1O[C@@H]2O[C@H]3[C@H](O)[C@@H](O)[C@@H](O[C@H]4[C@H](O)[C@@H](O)[C@@H](O[C@H]5[C@H](O)[C@@H](O)[C@@H](O[C@H]6[C@H](O)[C@@H](O)[C@@H](O[C@H]7[C@H](O)[C@@H](O)[C@@H](O[C@H]1[C@H](O)[C@H]2O)O[C@@H]7CO)O[C@@H]6CO)O[C@@H]5CO)O[C@@H]4CO)O[C@@H]3CO [α-cyclodextrin] + O
Details	mass density [kg/m3]
m1 = 0.00975	1000.6
m1 = 0.01763	1003.4
m1 = 0.02931	1007.6
m1 = 0.03389	1009.2
m1 = 0.04348	1012.5
m1 = 0.05233	1015.6
m1 = 0.06207	1018.9
m1 = 0.07117	1022
m1 = 0.0783	1024.4
m1 = 0.09004	1028.3
m1 = 0.09733	1031
m1 = 0.09764	1030.7
m1 = 0.09915	1031.6
m1 = 0.09944	1031.7
m1 = 0.1001	1031.6
